Drawing on publication PMC10265916, “Elraglusib (formerly 9-ING-41) possesses potent anti-lymphoma properties which cannot be attributed to GSK3 inhibition” (Cell Communication and Signaling : CCS, 2023), this text covers IC50 and inhibition for one compound.

Where only a bound is given, the exact number is not on record here.

What all share (format): biochemical
One experiment deals with T1, GSK3β (Homo sapiens, UniProt P49841).
T1 construct: gene GSK3B
As to the kind of experiment: in vitro GSK3β kinase assay (IC50) and […] cell-free kinase screen.

The target in experiment [1] is T2, MST2 (serine/threonine-protein kinase 3, STK3) (Homo sapiens, UniProt Q13188).
T2 sequence (Q13188 1-491): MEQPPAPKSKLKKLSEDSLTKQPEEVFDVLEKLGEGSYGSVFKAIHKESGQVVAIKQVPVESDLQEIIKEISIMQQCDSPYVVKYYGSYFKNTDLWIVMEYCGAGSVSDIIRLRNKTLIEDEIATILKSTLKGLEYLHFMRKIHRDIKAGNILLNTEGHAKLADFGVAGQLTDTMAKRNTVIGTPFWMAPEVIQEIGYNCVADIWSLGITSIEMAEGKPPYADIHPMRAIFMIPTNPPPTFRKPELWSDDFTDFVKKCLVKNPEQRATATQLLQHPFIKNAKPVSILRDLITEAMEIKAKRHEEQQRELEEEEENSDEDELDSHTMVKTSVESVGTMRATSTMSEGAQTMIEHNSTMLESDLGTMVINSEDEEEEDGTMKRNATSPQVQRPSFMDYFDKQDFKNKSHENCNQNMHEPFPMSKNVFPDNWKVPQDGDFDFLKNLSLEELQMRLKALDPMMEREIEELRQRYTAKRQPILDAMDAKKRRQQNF
As to the kind of experiment: […] cell-free kinase screen, […] inhibition at […].

Experiment [2] addresses PIM3 (proto-oncogene serine/threonine-protein kinase 3) (Homo sapiens, UniProt Q86V86). The experiment in a line: […] cell-free kinase screen, […] inhibition at […].
The target of experiment [3] is PIM1 (proto-oncogene serine/threonine-protein kinase 1) (Homo sapiens, UniProt P11309). The experiment in a line: […] cell-free kinase screen, […] inhibition at […].
Chain of PIM1 (proto-oncogene serine/threonine-protein kinase 1) (P11309 whole entry): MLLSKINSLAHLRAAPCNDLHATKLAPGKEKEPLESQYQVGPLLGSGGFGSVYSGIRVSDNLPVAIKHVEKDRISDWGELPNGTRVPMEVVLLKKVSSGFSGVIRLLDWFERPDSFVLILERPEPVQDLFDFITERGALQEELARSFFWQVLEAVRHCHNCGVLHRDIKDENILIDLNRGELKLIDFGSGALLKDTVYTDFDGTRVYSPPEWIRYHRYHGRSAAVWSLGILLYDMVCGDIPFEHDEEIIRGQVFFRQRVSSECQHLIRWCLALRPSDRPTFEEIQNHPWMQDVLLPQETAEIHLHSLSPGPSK

T1 sequence (P49841 whole entry): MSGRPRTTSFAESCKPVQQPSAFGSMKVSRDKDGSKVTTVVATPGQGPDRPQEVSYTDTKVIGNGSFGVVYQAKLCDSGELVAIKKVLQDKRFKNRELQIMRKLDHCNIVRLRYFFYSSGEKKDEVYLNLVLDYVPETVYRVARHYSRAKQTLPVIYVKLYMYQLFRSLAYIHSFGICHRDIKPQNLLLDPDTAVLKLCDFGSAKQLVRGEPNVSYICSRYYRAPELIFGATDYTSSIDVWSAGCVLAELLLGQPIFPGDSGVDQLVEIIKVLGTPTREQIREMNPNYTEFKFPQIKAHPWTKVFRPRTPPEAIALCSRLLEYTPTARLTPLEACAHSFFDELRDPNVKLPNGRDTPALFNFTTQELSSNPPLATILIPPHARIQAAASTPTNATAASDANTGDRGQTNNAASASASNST

`Cn1cc(C2=C(c3coc4ccc(F)cc34)C(=O)NC2=O)c2cc3c(cc21)OCO3` [elraglusib] registered an IC50 on GSK3β of 370 nM. The inhibition at 5 µM in experiment [1], in experiment [2] and in experiment [3] was over 50% each time.
